Test results: patent US4110327A, “2,3 Diketo-piperazinocarbonylamino alkanoic acids and derivatives” (Toyama Chemical Co., Ltd., priority 1974, dated 1978)
Values after ≈ are worked out from the molar mass of the structure shown. Blank lines part the entries; values can stand above or below the molecule they belong to.

How the values were obtained:
Assay type in all cases: cell-based
Proteus morganii = test: MIC against clinical isolates; settings: clinical isolate, unit assumed
Klebsiella pneumoniae [1] = test: MIC against clinical isolates; settings: unit assumed
Escherichia coli = test: MIC against clinical isolates; settings: unit assumed
Staphylococcus aureus = test: MIC against clinical isolates; settings: unit assumed
Klebsiella pneumoniae [2] = test: MIC against standard strain, plate method; settings: unit assumed
Method in brief: (§1)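 Agar plate dilution MIC in heart infusion agar, pH 7.4. Inoculum was 10^4 cells per plate, from a suspension of 10^6 cells/ml.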

Proteus vulgaris 3027 = test: MIC against standard strain, plate method; settings: Proteus vulgaris 3027, standard strain; unit assumed
Method in brief: as §1

[3] = test system: Staphylococcus aureus 209p; test: MIC against standard strain, plate method; settings: unit assumed
Method in brief: as §1

Escherichia coli NIHJ = test: MIC against standard strain, plate method; settings: unit assumed
Method in brief: as §1

[4] = test system: Pseudomonas aeruginosa I.F.O.; test: MIC against standard strain, plate method; settings: unit assumed
Method in brief: as §1

Proteus rettgeri = test: MIC against clinical isolates; settings: clinical isolate, unit assumed
Proteus mirabilis = test: MIC against clinical isolates; settings: clinical isolate, unit assumed
Proteus vulgaris = test: MIC against clinical isolates; settings: clinical isolate, unit assumed
Pseudomonas aeruginosa = test: MIC against clinical isolates; settings: unit assumed
Salmonella typhi = test: MIC against clinical isolates; settings: unit assumed
Salmonella typhi-murium = test: MIC against clinical isolates; settings: unit assumed
Shigella flexneri = test: MIC against clinical isolates; settings: unit assumed
Experimental: (§2) The minimum inhibitory concentrations (MIC) was determined by the plate method disclosed in "Chemotherapy" (Japan), Vol. 16, (1968), pages 98 - 99. The culture medium used was a Heart infusion agar (pH 7.4). The number of the cells per plate used in the inoculum as 10^4 (10^6 cells/ml).
(§3) MIC was determined in the same manner as in the preceding paragraph (1).

Shigella sonnei = test: MIC against clinical isolates; settings: clinical isolate JS 11232; unit assumed
Experimental: as §2, §3

Compound: CC(=O)OCC1=C(C(=O)O)N2C(=O)[C@@H](NC(=O)[C@H](N)c3ccccc3)[C@H]2SC1 [Sodium Cephaloglycin, SodiumCephaloglycin, reference compound]
MIC (Proteus morganii): 1.56 µg/mL
MIC (Klebsiella pneumoniae [1]; clinical isolate GN 917): 1.56 µg/mL
MIC (Klebsiella pneumoniae [1]; clinical isolate GN 4081): 3.13 µg/mL
MIC (Klebsiella pneumoniae [1]; clinical isolate GN 4117): 3.13 µg/mL
MIC (Escherichia coli; clinical isolate GN 3435): 1.56 µg/mL
MIC (Escherichia coli; clinical isolate GN 3452): 3.13 µg/mL
MIC (Escherichia coli; clinical isolate GN 3465): 12.5 µg/mL
MIC (Escherichia coli; clinical isolate GN 3481): 3.13 µg/mL
MIC (Escherichia coli; clinical isolate GN 3611): 25 µg/mL
MIC (Escherichia coli; clinical isolate K-1): 1.56 µg/mL
MIC (Escherichia coli; clinical isolate K-2): 1.56 µg/mL
MIC (Escherichia coli; clinical isolate K-3): 25 µg/mL
MIC (Escherichia coli; clinical isolate K-4): 12.5 µg/mL
MIC (Staphylococcus aureus; clinical isolate F-1): 3.13 µg/mL
MIC (Staphylococcus aureus; clinical isolate F-2): 1.56 µg/mL
MIC (Staphylococcus aureus; clinical isolate F-3): 1.56 µg/mL
MIC (Staphylococcus aureus; clinical isolate F-4): 3.13 µg/mL
MIC (Staphylococcus aureus; clinical isolate F-5): 25 µg/mL
MIC (Staphylococcus aureus; clinical isolate MS 8588): 3.13 µg/mL
MIC (Staphylococcus aureus; clinical isolate MS 8596): 1.56 µg/mL
MIC (Staphylococcus aureus; clinical isolate MS 8619): 1.56 µg/mL
MIC (Staphylococcus aureus; clinical isolate MS 8684): 1.56 µg/mL
MIC (Staphylococcus aureus; clinical isolate MS 8713): 3.13 µg/mL
MIC (Klebsiella pneumoniae [2]): 100 µg/mL
MIC (Proteus vulgaris 3027): < 1.57 µg/mL
MIC [3]: < 1.57 µg/mL
MIC (Escherichia coli NIHJ): < 1.57 µg/mL
MIC [4]: > 200 µg/mL
MIC (Proteus rettgeri): 50 µg/mL
MIC (Proteus mirabilis): 3.13 µg/mL
MIC (Proteus vulgaris): 50 µg/mL
MIC (Pseudomonas aeruginosa; clinical isolate GN 82): > 200 µg/mL
MIC (Pseudomonas aeruginosa; clinical isolate GN 163): > 200 µg/mL
MIC (Pseudomonas aeruginosa; clinical isolate GN 221): > 200 µg/mL
MIC (Pseudomonas aeruginosa; clinical isolate GN 244): > 200 µg/mL
MIC (Pseudomonas aeruginosa; clinical isolate GN 376): > 200 µg/mL
MIC (Pseudomonas aeruginosa; clinical isolate GN 383): > 200 µg/mL
MIC (Pseudomonas aeruginosa; clinical isolate GN 1035): > 200 µg/mL
MIC (Pseudomonas aeruginosa; clinical isolate GN 1091): > 200 µg/mL
MIC (Pseudomonas aeruginosa; clinical isolate GN 2565): > 200 µg/mL
MIC (Pseudomonas aeruginosa; clinical isolate GN 2987): > 200 µg/mL
MIC (Pseudomonas aeruginosa; clinical isolate S-1): > 200 µg/mL
MIC (Pseudomonas aeruginosa; clinical isolate S-2): > 200 µg/mL
MIC (Pseudomonas aeruginosa; clinical isolate S-3): > 200 µg/mL
MIC (Pseudomonas aeruginosa; clinical isolate S-4): > 200 µg/mL

Compound: CCCCCCCCN1CCN(C(=O)N[C@@H](C(=O)N[C@@H]2C(=O)N3[C@@H]2SC(C)(C)[C@@H]3C(=O)O)c2ccccc2)C(=O)C1 [compound 16]
MIC (Proteus morganii): 1.56 µg/mL (≈ 2.65 µM)
MIC (Klebsiella pneumoniae [1]; clinical isolate GN 917): 12.5 µg/mL (≈ 21.3 µM)
MIC (Klebsiella pneumoniae [1]; clinical isolate GN 4081): 25 µg/mL (≈ 42.5 µM)
MIC (Klebsiella pneumoniae [1]; clinical isolate GN 4117): 25 µg/mL (≈ 42.5 µM)
MIC (Escherichia coli; clinical isolate GN 3465): 12.5 µg/mL (≈ 21.3 µM)
MIC (Escherichia coli; clinical isolate K-3): 50 µg/mL (≈ 85.1 µM)
MIC (Staphylococcus aureus; clinical isolate F-1): 6.25 µg/mL (≈ 10.6 µM)
MIC (Staphylococcus aureus; clinical isolate F-2): 0.79 µg/mL (≈ 1.34 µM)
MIC (Staphylococcus aureus; clinical isolate F-4): 6.25 µg/mL (≈ 10.6 µM)
MIC (Staphylococcus aureus; clinical isolate F-5): 100 µg/mL (≈ 170 µM)
MIC (Staphylococcus aureus; clinical isolate MS 8619): < 0.4 µg/mL
MIC (Salmonella typhi; clinical isolate SL 819): 3.13 µg/mL (≈ 5.33 µM)
MIC (Salmonella typhi; clinical isolate SL 2169): 1.57 µg/mL (≈ 2.67 µM)
MIC (Proteus vulgaris 3027): < 1.57 µg/mL
MIC [3]: < 1.57 µg/mL
MIC (Escherichia coli NIHJ): < 1.57 µg/mL
MIC [4]: 12.5 µg/mL (≈ 21.3 µM)
MIC (Proteus rettgeri): 6.25 µg/mL (≈ 10.6 µM)
MIC (Salmonella typhi-murium; clinical isolate SL 858): 1.57 µg/mL (≈ 2.67 µM)
MIC (Salmonella typhi-murium; clinical isolate SL 2136): 100 µg/mL (≈ 170 µM)
MIC (Proteus mirabilis): 1.56 µg/mL (≈ 2.65 µM)
MIC (Proteus vulgaris): 0.8 µg/mL (≈ 1.36 µM)
MIC (Pseudomonas aeruginosa; clinical isolate GN 82): 6.25 µg/mL (≈ 10.6 µM)
MIC (Pseudomonas aeruginosa; clinical isolate GN 163): 12.5 µg/mL (≈ 21.3 µM)
MIC (Pseudomonas aeruginosa; clinical isolate GN 221): 25 µg/mL (≈ 42.5 µM)
MIC (Pseudomonas aeruginosa; clinical isolate GN 376): 25 µg/mL (≈ 42.5 µM)
MIC (Pseudomonas aeruginosa; clinical isolate GN 383): 25 µg/mL (≈ 42.5 µM)
MIC (Pseudomonas aeruginosa; clinical isolate GN 1035): 25 µg/mL (≈ 42.5 µM)
MIC (Pseudomonas aeruginosa; clinical isolate GN 1091): 12.5 µg/mL (≈ 21.3 µM)
MIC (Pseudomonas aeruginosa; clinical isolate GN 2565): 12.5 µg/mL (≈ 21.3 µM)
MIC (Pseudomonas aeruginosa; clinical isolate GN (number not given; Table 5-3)): 12.5 µg/mL (≈ 21.3 µM)
MIC (Pseudomonas aeruginosa; clinical isolate S-1): 12.5 µg/mL (≈ 21.3 µM)
MIC (Pseudomonas aeruginosa; clinical isolate S-2): 25 µg/mL (≈ 42.5 µM)
MIC (Pseudomonas aeruginosa; clinical isolate S-3): 50 µg/mL (≈ 85.1 µM)
MIC (Pseudomonas aeruginosa; clinical isolate S-4): 25 µg/mL (≈ 42.5 µM)
MIC (Shigella flexneri; clinical isolate JS 11215): 6.25 µg/mL (≈ 10.6 µM)
MIC (Shigella flexneri; clinical isolate JS 11839): 0.79 µg/mL (≈ 1.34 µM)
MIC (Shigella sonnei): 6.25 µg/mL (≈ 10.6 µM)

MIC (Proteus morganii): 3.13 µg/mL (≈ 5.08 µM)
MIC (Klebsiella pneumoniae [1]; clinical isolate GN 917): 3.13 µg/mL (≈ 5.08 µM)
MIC (Klebsiella pneumoniae [1]; clinical isolate GN 4081): 6.25 µg/mL (≈ 10.2 µM)
MIC (Klebsiella pneumoniae [1]; clinical isolate GN 4117): 6.25 µg/mL (≈ 10.2 µM)
MIC (Escherichia coli; clinical isolate GN 3435): 3.13 µg/mL (≈ 5.08 µM)
MIC (Escherichia coli; clinical isolate GN 3452): 12.5 µg/mL (≈ 20.3 µM)
MIC (Escherichia coli; clinical isolate GN 3465): 25 µg/mL (≈ 40.6 µM)
MIC (Escherichia coli; clinical isolate GN 3481): 3.13 µg/mL (≈ 5.08 µM)
MIC (Escherichia coli; clinical isolate GN 3611): 100 µg/mL (≈ 162 µM)
MIC (Escherichia coli; clinical isolate K-1): 3.13 µg/mL (≈ 5.08 µM)
MIC (Escherichia coli; clinical isolate K-2): 6.25 µg/mL (≈ 10.2 µM)
MIC (Escherichia coli; clinical isolate K-3): 50 µg/mL (≈ 81.2 µM)
MIC (Escherichia coli; clinical isolate K-4): 6.25 µg/mL (≈ 10.2 µM)
MIC (Staphylococcus aureus; clinical isolate F-1): 3.13 µg/mL (≈ 5.08 µM)
MIC (Staphylococcus aureus; clinical isolate F-2): 0.78 µg/mL (≈ 1.27 µM)
MIC (Staphylococcus aureus; clinical isolate F-3): 1.56 µg/mL (≈ 2.53 µM)
MIC (Staphylococcus aureus; clinical isolate F-4): 1.56 µg/mL (≈ 2.53 µM)
MIC (Staphylococcus aureus; clinical isolate F-5): 12.5 µg/mL (≈ 20.3 µM)
MIC (Staphylococcus aureus; clinical isolate MS 8588): 1.56 µg/mL (≈ 2.53 µM)
MIC (Staphylococcus aureus; clinical isolate MS 8596): 1.56 µg/mL (≈ 2.53 µM)
MIC (Staphylococcus aureus; clinical isolate MS 8619): 0.78 µg/mL (≈ 1.27 µM)
MIC (Staphylococcus aureus; clinical isolate MS 8684): 1.56 µg/mL (≈ 2.53 µM)
MIC (Staphylococcus aureus; clinical isolate MS 8713): 1.56 µg/mL (≈ 2.53 µM)
MIC (Klebsiella pneumoniae [2]): < 0.79 µg/mL
MIC (Proteus vulgaris 3027): 1.57 µg/mL (≈ 2.55 µM)
MIC [3]: < 0.79 µg/mL
MIC (Escherichia coli NIHJ): < 0.79 µg/mL
MIC [4]: 25 µg/mL (≈ 40.6 µM)
MIC (Proteus rettgeri): 3.13 µg/mL (≈ 5.08 µM)
MIC (Proteus mirabilis): 3.13 µg/mL (≈ 5.08 µM)
MIC (Proteus vulgaris): 1.56 µg/mL (≈ 2.53 µM)
MIC (Pseudomonas aeruginosa; clinical isolate GN 82): 50 µg/mL (≈ 81.2 µM)
MIC (Pseudomonas aeruginosa; clinical isolate GN 163): 25 µg/mL (≈ 40.6 µM)
MIC (Pseudomonas aeruginosa; clinical isolate GN 221): 25 µg/mL (≈ 40.6 µM)
MIC (Pseudomonas aeruginosa; clinical isolate GN 244): 50 µg/mL (≈ 81.2 µM)
MIC (Pseudomonas aeruginosa; clinical isolate GN 376): 50 µg/mL (≈ 81.2 µM)
MIC (Pseudomonas aeruginosa; clinical isolate GN 383): 25 µg/mL (≈ 40.6 µM)
MIC (Pseudomonas aeruginosa; clinical isolate GN 1035): 100 µg/mL (≈ 162 µM)
MIC (Pseudomonas aeruginosa; clinical isolate GN 1091): 50 µg/mL (≈ 81.2 µM)
MIC (Pseudomonas aeruginosa; clinical isolate GN 2565): 50 µg/mL (≈ 81.2 µM)
MIC (Pseudomonas aeruginosa; clinical isolate GN 2987): 25 µg/mL (≈ 40.6 µM)
MIC (Pseudomonas aeruginosa; clinical isolate S-1): 100 µg/mL (≈ 162 µM)
MIC (Pseudomonas aeruginosa; clinical isolate S-2): 100 µg/mL (≈ 162 µM)
MIC (Pseudomonas aeruginosa; clinical isolate S-3): 100 µg/mL (≈ 162 µM)
MIC (Pseudomonas aeruginosa; clinical isolate S-4): 100 µg/mL (≈ 162 µM)
Compound: CN1CCN(C(=O)NC(C(=O)NC2C(=O)N3C(C(=O)O)=C(CSc4nnnn4C)CSC23)c2ccccc2)C(=O)C1=O (single isomer, unassigned) [compound 63]
